{
  "source": "patent US20200399250A1",
  "about": "“Pyrimidine Derivatives as Tropomyosin Receptor Kinase A (TRKA) Inhibitors” (BIOMED X GMBH, priority 2017, published 2020)",
  "key": {"[1]": {"assay": "Plasma concentration of compound a1 after i.v. injection in mice (LC-MS-MS)", "format": "in vivo, C57Bl/6 mice", "details": "for Plasma Conc. of Compound a1: 1 hour, single animal; for concentration at 1 h: female, C57Bl/6, mouse, plasma, intravenous", "protocol": "Compound a1 was synthesized under contract by the company Enamine Ltd. according to Example 1. Dimethylsulfoxide (DMSO) from J. T. Baker (Germany), Cremophor EL (Polyoxyethyleneglycerol triricinoleate 35 castor oil) from BASF (Germany), and Saline solution 0.9% from B. Braun (Germany) were used in this study. Two types of formulations were prepared: a formulation with a high dose of compound a1 (9 mM) and a formulation with a low dose of compound a1 (1.8 mM); c.f. Tables 5 and 6. First, a 100 mM stock solution of compound a1 in DMSO was prepared by dissolving 18.46 mg of compound a1 (molecular weight of 461.56 g/mol) in 400 μl DMSO at room temperature. The formulation with the high dose of a1 was prepared using 9% a1-DMSO stock solution, 10% Cremophor EL, and 81% saline. The formulation with the low dose of a1 contained 1.8% a1-DMSO stock solution, 5% Cremophor EL, and 93.2% saline; c.f. FIG. 2.\nExperiments were carried out in accordance with the EU Directive 86/609/EEC on the protection of animals used for scientific purposes. Female adult C57Bl/6 mice (6-8 weeks old, body weight 20 g) were treated with 5 mg/kg (low dose) and 25 mg/kg (high dose) compound a1 or with vehicle (formulations without compound a1) or with saline by intravenous (i.v.) injections for 1 hour using a 1 ml syringe (29-G, Terumo); c.f. Table 6. After injection, the mice were returned to their home cages, and after 1 hour, the mice were anaesthetized with isoflurane. Terminal blood samples were collected using a 1 ml syringe (20-G needle, B. Braun). The blood was immediately transferred into a 1.3 ml heparin-coated tube (Sarstedt). Plasma was collected by centrifugation at 1500 g for 15 minutes. The supernatant was placed in a 1.5 ml tube on dry ice and stored at −20° C.\nThe quantification of compound a1 in murine plasma samples was performed via liquid chromatography tandem mass spectrometry (LC-MS-MS)."}, "TrkA": {"target": "TrkA (Homo sapiens, UniProt P04629)", "sequence (P04629 33-796)": "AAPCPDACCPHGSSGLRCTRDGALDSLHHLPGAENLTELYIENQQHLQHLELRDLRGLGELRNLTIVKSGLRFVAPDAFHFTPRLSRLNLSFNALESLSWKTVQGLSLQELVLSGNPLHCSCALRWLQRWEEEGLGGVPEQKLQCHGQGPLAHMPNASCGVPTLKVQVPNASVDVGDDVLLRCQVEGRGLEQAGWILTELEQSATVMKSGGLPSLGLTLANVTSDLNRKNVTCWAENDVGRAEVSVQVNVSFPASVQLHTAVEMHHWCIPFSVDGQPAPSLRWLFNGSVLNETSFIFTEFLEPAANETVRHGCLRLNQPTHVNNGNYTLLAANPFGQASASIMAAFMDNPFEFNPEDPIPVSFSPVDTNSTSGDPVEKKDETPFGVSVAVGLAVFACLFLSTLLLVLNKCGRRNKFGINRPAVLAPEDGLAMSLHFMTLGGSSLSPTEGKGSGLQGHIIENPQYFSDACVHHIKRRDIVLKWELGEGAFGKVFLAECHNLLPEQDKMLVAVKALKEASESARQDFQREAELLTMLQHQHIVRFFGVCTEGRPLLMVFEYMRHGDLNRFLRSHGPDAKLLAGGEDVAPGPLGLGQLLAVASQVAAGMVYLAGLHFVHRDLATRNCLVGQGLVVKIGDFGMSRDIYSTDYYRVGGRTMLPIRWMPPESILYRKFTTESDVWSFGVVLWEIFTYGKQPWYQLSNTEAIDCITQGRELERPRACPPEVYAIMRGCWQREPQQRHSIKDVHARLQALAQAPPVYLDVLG", "assay": "KINOMEscan primary screen against TrkA", "format": "binding", "details": "% of control", "protocol": "Compounds were initially tested in a primary screen against TrkA (at 10 and 100 nM) and AurA (at 100 nM and 1 μM) using the KINOMEscan technology from DiscoverX Corporation, Fremont, Calif., USA (https://www.discoverx.com/services/drug-discovery-development-services/kinase-profiling/kinomescan).\nResults were reported as % of control (% Ctrl.=(test compound signal−positive control signal)/(DMSO signal−positive control signal). KINOMEscan is an active site-directed competition binding assay that quantitatively measures the ability of a compound to compete with an immobilized, active-site directed ligand."}, "AurA": {"target": "T1, AurA (Homo sapiens, UniProt O14965)", "T1 sequence (O14965 1-403)": "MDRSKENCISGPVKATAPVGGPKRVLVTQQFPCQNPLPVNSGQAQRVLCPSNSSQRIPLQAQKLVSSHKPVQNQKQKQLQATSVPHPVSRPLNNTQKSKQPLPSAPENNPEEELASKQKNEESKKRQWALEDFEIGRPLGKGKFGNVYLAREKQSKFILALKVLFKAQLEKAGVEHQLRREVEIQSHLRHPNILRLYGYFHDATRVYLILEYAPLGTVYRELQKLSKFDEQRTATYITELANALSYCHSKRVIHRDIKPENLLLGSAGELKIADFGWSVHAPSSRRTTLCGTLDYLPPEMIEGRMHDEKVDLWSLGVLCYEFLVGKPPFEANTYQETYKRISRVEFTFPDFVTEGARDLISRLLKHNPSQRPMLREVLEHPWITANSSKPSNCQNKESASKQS", "assay": "KdELECT Kd measurement (KINOMEscan), AurA", "format": "binding", "protocol": "Kd measurements were done via the KdELECT product service from DiscoverX Corporation (Freemont, Calif., USA) which also employs the KINOMEscan technology. Here, inhibitor binding constants (Kd values) are calculated from duplicate 11-point dose-response curves."}, "panel of 97 kinases": {"system": "panel of 97 kinases", "assay": "Selectivity profiling, scanEDGE kinase panel (KINOMEscan)", "format": "binding", "details": "100 nM, cut-off <35% ctrl", "protocol": "Selectivity profiling was done over a panel of 97 kinases at 100 nM concentration (scanEDGE assay panel from Discover X, which also uses the KINOMEscan technology, whereat KIT(D816V) and KIT (V559D, T6701) were replaced by TrkB and TrkC). […] The employed profiling panel consisted of the following kinases: ABL1(T3151)-phosphorylated, ABL1-nonphosphorylated, ABL1-phosphorylated, ACVR1B, ADCK3, AKT1, AKT2, ALK, AURKA, AURKB, AXL, BMPR2, BRAF, BRAF (V600E), BTK, CDK11, CDK2, CDK3, CDK7, CDK9, CHEK1, CSF1R, CSNK1D, CSNK1G2, DCAMKL1, DYRK1B, EGFR, EGFR (L858R), EPHA2, ERBB2, ERBB4, ERK1, FAK, FGFR2, FGFR3, FLT3, GSK3B, IGF1R, IKK-alpha, IKK-beta, INSR, JAK2 (JH1domain-catalytic), JAK3 (JH1domain-catalytic), JNK1, JNK2, JNK3, KIT, LKB1, MAP3K4, MAPKAPK2, MARK3, MEK1, MEK2, MET, MKNK1, MKNK2, MLK1, p38-alpha, p38-beta, PAK1, PAK2, PAK4, PCTK1, PDGFRA, PDGFRB, PDPK1, PIK3C2B, PIK3CA, PIK3CG, PIM1, PIM2, PIM3, PKAC-alpha, PLK1, PLK3, PLK4, PRKCE, RAF1, RET, RIOK2, ROCK2, RSK2 (Kin. Dom. 1-N-terminal), SNARK, SRC, SRPK3, TGFBR1, TIE2, TRKA, TRKB, TRKC, TSSK1B, TYK2 (JH1domain-catalytic), ULK2, VEGFR2, YANK3, ZAP70"}},
  "note": "Values joined by “and” are separate entries in the source; they are usually repeats but may differ in a detail not shown here. Identical values can stand only once. “Also recorded” adds a separate entry of the source.",
  "data": [
    {"compound": "CN1CCN(c2cc(Nc3cc(-c4cccc(F)c4)[nH]n3)nc(Sc3ccccc3)n2)CC1", "note": "[a1, N-[5-(3-fluorophenyl)-1H-pyrazol-3-yl]-6-(4-methylpiperazin-1-yl)-2-(phenylsulfanyl)pyrimidin-4-amine]", "values": [
      {"measurement": "Plasma Conc. of Compound a1", "setting": "[1]; a1_high formulation, 25 mg/kg i.v., 25 mg/kg", "value": "805 nM and 920 nM"},
      {"measurement": "Plasma Conc. of Compound a1", "setting": "[1]; a1_low formulation, 5 mg/kg i.v., 5 mg/kg", "value": "272 nM and 407 nM"},
      {"measurement": "concentration at 1 h", "setting": "[1]; 5 mg/kg (low dose) i.v.", "value": 340, "unit": "nM"},
      {"measurement": "concentration at 1 h", "setting": "[1]; 25 mg/kg (high dose) i.v.", "value": 863, "unit": "nM"},
      {"measurement": "% Ctrl. TrkA @10 nM", "setting": "TrkA; 10 nM compound", "value": 11, "unit": "% Ctrl."},
      {"measurement": "% Ctrl. TrkA @100 nM", "setting": "TrkA; 100 nM compound", "value": 1.9, "unit": "% Ctrl."},
      {"measurement": "AurA [pKd]", "setting": "AurA", "value": 5.3},
      {"measurement": "Kd", "setting": "AurA; duplicate 11-point dose-response curves", "value": 4.5, "unit": "µM"},
      {"measurement": "# Hits", "setting": "panel of 97 kinases; N = 92 non-mutant kinases", "value": 7},
      {"measurement": "List of inhibited kinases", "setting": "panel of 97 kinases", "value": "TrkA, TrkB, TrkC, FLT3, KIT,; also recorded: PDGFRb, RET"},
      {"measurement": "Selectivity Score", "setting": "panel of 97 kinases; inhibited kinases/tested kinases", "value": "0.08 and 0.076"}
    ]}
  ]
}
